Reference: PMC8480901 (PLoS ONE, 2021)
“And” between values parts separate entries of the source, which are not always exact repeats. Equal values may be shown once.

Test system: human PBMCs
Assay: LPS-induced cytokine and chemokine levels in human PBMC supernatant (Luminex, ELISA)
Format: cell-based
Details: for CCl2, % reduction / CXCL1 % reduction / CXCL2 % reduction / MMP9 % reduction / CCl2, Mean / CXCL1, Mean / CXCL2, Mean / MMP9, Mean / CCl2, individual value / CXCL1, individual value / CXCL2, individual value / MMP9, individual value: LPS-stimulated PBMC supernatant; for CCl2, Mean / CXCL1, Mean / CXCL2, Mean / MMP9, Mean: sample size 2; for CCl2, individual value / CXCL1, individual value / CXCL2, individual value / MMP9, individual value: single replicate
[1] = LPS-stimulated human PBMC supernatant, 0.03 µM

CC[C@H]1OC(=O)[C@H](C)[C@@H](O[C@H]2C[C@@](C)(OC)[C@@H](O)[C@H](C)O2)[C@H](C)[C@@H](O[C@@H]2O[C@H](C)C[C@H](N(C)C)[C@H]2O)[C@](C)(O)C[C@@H](C)CN(C)[C@H](C)[C@@H](O)[C@]1(C)O [Azithromycin]
CCl2, % reduction (0.03 µM): -5.55%
CXCL1 % reduction (0.03 µM): -4.76%
CXCL2 % reduction (0.03 µM): 2.43%
MMP9 % reduction (0.03 µM): -1.46%
CCl2, Mean (0.03 µM): 1334 pg/mL
CXCL1, Mean (0.03 µM): 6234 pg/mL
CXCL2, Mean (0.03 µM): 4935 pg/mL
MMP9, Mean (0.03 µM): 3019 pg/mL
CCl2, individual value (0.03 µM): 1307 pg/mL and 1361 pg/mL
CXCL1, individual value (0.03 µM): 6199 pg/mL and 6268 pg/mL
CXCL2, individual value (0.03 µM): 5023 pg/mL and 4847 pg/mL
MMP9, individual value (0.03 µM): 3072 pg/mL and 2966 pg/mL
CCl2, % reduction (0.1 µM): -0.293%
CXCL1 % reduction (0.1 µM): -0.522%
CXCL2 % reduction (0.1 µM): 4.49%
MMP9 % reduction (0.1 µM): -3.72%
CCl2, Mean (0.1 µM): 1270 pg/mL
CXCL1, Mean (0.1 µM): 5984 pg/mL
CXCL2, Mean (0.1 µM): 4831 pg/mL
MMP9, Mean (0.1 µM): 3056 pg/mL
CCl2, individual value (0.1 µM): 1278 pg/mL and 1261 pg/mL
CXCL1, individual value (0.1 µM): 6035 pg/mL and 5932 pg/mL
CXCL2, individual value (0.1 µM): 4923 pg/mL and 4739 pg/mL
MMP9, individual value (0.1 µM): 3040 pg/mL and 3071 pg/mL
CCl2, % reduction (0.3 µM): -5.66%
CXCL1 % reduction (0.3 µM): -5%
CXCL2 % reduction (0.3 µM): 1.16%
MMP9 % reduction (0.3 µM): -0.427%
CCl2, Mean (0.3 µM): 1335 pg/mL
CXCL1, Mean (0.3 µM): 6237 pg/mL
CXCL2, Mean (0.3 µM): 4999 pg/mL
MMP9, Mean (0.3 µM): 3002 pg/mL
CCl2, individual value (0.3 µM): 1355 pg/mL and 1316 pg/mL
CXCL1, individual value (0.3 µM): 6416 pg/mL and 6058 pg/mL
CXCL2, individual value (0.3 µM): 4805 pg/mL and 5194 pg/mL
MMP9, individual value (0.3 µM): 2940 pg/mL and 3064 pg/mL
CCl2, % reduction (1 µM): -3.46%
CXCL2 % reduction (1 µM): 5.46%
MMP9 % reduction (1 µM): 0.166%
CCl2, Mean (1 µM): 1309 pg/mL
CXCL1, Mean (1 µM): 6015 pg/mL
CXCL2, Mean (1 µM): 4782 pg/mL
MMP9, Mean (1 µM): 2992 pg/mL
CCl2, individual value (1 µM): 1330 pg/mL and 1287 pg/mL
CXCL1, individual value (1 µM): 6000 pg/mL and 6030 pg/mL
CXCL2, individual value (1 µM): 4905 pg/mL and 4659 pg/mL
MMP9, individual value (1 µM): 2945 pg/mL
CCl2, % reduction (3 µM): -21%
CXCL1 % reduction (3 µM): -11%
CXCL2 % reduction (3 µM): -6%
MMP9 % reduction (3 µM): -3.25%
CCl2, Mean (3 µM): 1528 pg/mL
CXCL1, Mean (3 µM): 6579 pg/mL
CXCL2, Mean (3 µM): 5371 pg/mL
MMP9, Mean (3 µM): 3048 pg/mL
CCl2, individual value (3 µM): 1488 pg/mL and 1567 pg/mL
CXCL1, individual value (3 µM): 6461 pg/mL and 6697 pg/mL
CXCL2, individual value (3 µM): 5747 pg/mL and 4996 pg/mL
MMP9, individual value (3 µM): 3040 pg/mL and 3056 pg/mL
CCl2, % reduction (10 µM): -56%
CXCL1 % reduction (10 µM): -10%
CXCL2 % reduction (10 µM): 2%
MMP9 % reduction (10 µM): 7.45%
CCl2, Mean (10 µM): 1950 pg/mL
CXCL1, Mean (10 µM): 6547 pg/mL
CXCL2, Mean (10 µM): 4953 pg/mL
MMP9, Mean (10 µM): 2874 pg/mL
CCl2, individual value (10 µM): 1899 pg/mL and 2002 pg/mL
CXCL1, individual value (10 µM): 6457 pg/mL and 6637 pg/mL
CXCL2, individual value (10 µM): 4894 pg/mL and 5012 pg/mL
MMP9, individual value (10 µM): 2884 pg/mL and 2864 pg/mL
CCl2, % reduction (30 µM): -138%
CXCL1 % reduction (30 µM): 8%
CXCL2 % reduction (30 µM): 10%
MMP9 % reduction (30 µM): 5%
CCl2, Mean (30 µM): 2956 pg/mL
CXCL1, Mean (30 µM): 5474 pg/mL
CXCL2, Mean (30 µM): 4573 pg/mL
MMP9, Mean (30 µM): 2917 pg/mL
CCl2, individual value (30 µM): 3047 pg/mL and 2865 pg/mL
CXCL1, individual value (30 µM): 5594 pg/mL and 5354 pg/mL
CXCL2, individual value (30 µM): 4609 pg/mL and 4537 pg/mL
MMP9, individual value (30 µM): 2925 pg/mL and 2908 pg/mL
CCl2, % reduction (100 µM): -63%
CXCL1 % reduction (100 µM): 55%
CXCL2 % reduction (100 µM): 16%
CCl2, Mean (100 µM): 2038 pg/mL
CXCL1, Mean (100 µM): 2693 pg/mL
CXCL2, Mean (100 µM): 4264 pg/mL
MMP9, Mean (100 µM): 2975 pg/mL
CCl2, individual value (100 µM): 1970 pg/mL and 2105 pg/mL
CXCL1, individual value (100 µM): 2693 pg/mL
CXCL2, individual value (100 µM): 4200 pg/mL and 4328 pg/mL
MMP9, individual value (100 µM): 2977 pg/mL and 2972 pg/mL
GM-CSF % reduction [1]: 1.46%
GM-CSF [pg/mL], Mean [1]: 648 pg/mL
GM-CSF [pg/mL], individual value [1]: 664 pg/mL and 632 pg/mL
IL-1β % reduction [1]: 4.49%
IL-1β [pg/mL], Mean [1]: 12211 pg/mL
IL-1β [pg/mL], individual value [1]: 11901 pg/mL
IL-6 % reduction [1]: -0.732%
IL-6 [pg/mL], Mean [1]: 35164 pg/mL
IL-6 [pg/mL], individual value [1]: 34554 pg/mL and 35775 pg/mL
IL-8 % reduction [1]: -1.46%
IL-8 [pg/mL], Mean [1]: 3019 pg/mL
IL-8 [pg/mL], individual value [1]: 3072 pg/mL and 2966 pg/mL
TNF-α % reduction [1]: -24%
